Experimental data: paper PMC10486429, “Investigations Using Albumin Binders to Modify the Tissue Distribution Profile of Radiopharmaceuticals Exemplified with Folate Radioconjugates” (Cancers, 2023)

Columns and labels:
[1] = n-octanol/PBS distribution coefficient (shake-flask) of 177Lu-RedFols; type: physicochemical; settings: n-octanol/PBS pH 7.4
Method: The radiolytic stability of ^177Lu-RedFols (50 MBq/nmol) in PBS pH 7.4 was investigated at an activity concentration of 100 MBq in 500 µL over 24 h at room temperature. The n-octanol/PBS distribution coefficients (logD values) of the folate radioconjugates (50 MBq/nmol) were determined using the same shake-flask method as used for the ^177Lu-DOTA-ALBs, including statistical analysis (Supplementary Material, Section S4). […]
S4. n-Octanol/PBS Distribution Coefficient of 177Lu-DOTA-ALBs
Purpose: The n-octanol/PBS distribution coefficients (logD values) were determined for all 177Lu-DOTA-ALBs in order to assess their hydrophilic/hydrophobic properties.
Methods: The n-octanol/PBS distribution coefficients (logD values) of the 177Lu-DOTA-ALBs were determined as previously described. […] 4 . […]
The vials were vortexed vigorously for 1 min followed by centrifugation for 6 min at 560 rcf for phase separation. An aliquot was taken from each phase and measured in a γ-counter (Perkin Elmer, Wallac Wizard 1480, Waltham, MA, USA). The distribution coeffi-cients were calculated as the logarithm of the ratio of counts per minute (cpm) measured in the n-octanol phase relative to the cpm measured in the PBS phase. The results were listed as the average ± standard deviation (SD) of the data obtained from 2–3 independent experiments, each performed with five replicates. […]

[2] = test system: KB tumor-bearing athymic nude mice; assay: Biodistribution of 177Lu-RedFols in KB tumor-bearing mice; type: in vivo, mouse
Method: Athymic nude mice (Crl:CD1-Foxn^nu) were kept on a folate-deficient rodent diet (ssniff Spezialdiäten GmbH, Soest, Germany) for at least one week prior to inoculation with the tumor cells. Biodistribution studies were performed approx. two weeks after subcutaneous inoculation with KB tumor cells (5 × 10^6 in 100 μL PBS) (Supplementary Materials Section S12). […] Data were presented as the average ± SD of n = 3−4 mice.
Purpose: Biodistribution studies were performed in KB tumor-bearing athymic nude mice (Crl:CD1-Foxnnu) in order to investigate the tissue distribution profiles of the novel radioconjugates. The aim was to compare the impact of the two different albumin binders (4-(p-iodophenyl)butanoate unit vs. 5-(p-iodophenyl)pentanoate unit), and that of the in-corporation of an AMBA linker adjacent to the albumin binder on the distribution profile of the resulting folate radioconjugates.
Methods: The methods are described in the main article. The mice were sacrificed at […]

In the case of `CN1c2c(nc(N)[nH]c2=O)NCC1CNc1ccc(C(=O)NC(CCC(=O)NC(CCCCNC(=O)CN2CCN(CC(=O)[O-])CCN(CC(=O)[O-])CCN(CC(=O)[O-])CC2)C(=O)NC(CCCCNC(=O)c2ccc(CNC(=O)CCCc3ccc(I)cc3)cc2)C(=O)O)C(=O)O)cc1.[177Lu+3]` (stereo not drawn) [[^177Lu]Lu-6S-RedFol-3], the “logD Values” [1] was −3.2 ± 0.1, the “Blood, accumulated activity” value ([2]; 1 h p.i.) was 22 ± 1 % IA/g and the “Bone, accumulated activity” value ([2]; 1 h p.i.) was 1.9 ± 0.1 % IA/g. The “Intestines, accumulated activity” value ([2]; 1 h p.i.) was 2.3 ± 0.8 % IA/g, the “KB tumor, accumulated activity” value ([2]; 1 h p.i.) was 7.9 ± 1.2 % IA/g and the “Kidneys, accumulated activity” value ([2]; 1 h p.i.) was 12 ± 1 % IA/g. The “Liver, accumulated activity” value ([2]; 1 h p.i.) was 3.7 ± 0.2 % IA/g, the “Lung, accumulated activity” value ([2]; 1 h p.i.) was 9.3 ± 1.7 % IA/g and the “Muscle, accumulated activity” value ([2]; 1 h p.i.) was 1.4 ± 0.1 % IA/g. For the same molecule, the “Salivary glands, accumulated activity” value ([2]; 1 h p.i.) was 4.1 ± 0.3 % IA/g, the “Spleen, accumulated activity” value ([2]; 1 h p.i.) was 2.4 ± 0.2 % IA/g and the “Stomach, accumulated activity” value ([2]; 1 h p.i.) was 1.8 ± 0.2 % IA/g. The Tumor-to-blood ratio ([2]; 1 h p.i.) was 0.36 ± 0.06, the Tumor-to-kidney ratio ([2]; 1 h p.i.) was 0.66 ± 0.09 and the Tumor-to-liver ratio ([2]; 1 h p.i.) was 2.1 ± 0.4. For the same molecule, the “Blood, accumulated activity” value ([2]; 4 h p.i.) was 14 ± 1 % IA/g, the “Bone, accumulated activity” value ([2]; 4 h p.i.) was 1.8 ± 0.1 % IA/g and the “Intestines, accumulated activity” value ([2]; 4 h p.i.) was 1.7 ± 0.4 % IA/g. For the same molecule, the “KB tumor, accumulated activity” value ([2]; 4 h p.i.) was 16 ± 1 % IA/g, the “Kidneys, accumulated activity” value ([2]; 4 h p.i.) was 11 ± 2 % IA/g and the “Liver, accumulated activity” value ([2]; 4 h p.i.) was 2.4 ± 0.2 % IA/g. The “Lung, accumulated activity” value ([2]; 4 h p.i.) was 7.7 ± 2.6 % IA/g, the “Muscle, accumulated activity” value ([2]; 4 h p.i.) was 1.2 ± 0.2 % IA/g and the “Salivary glands, accumulated activity” value ([2]; 4 h p.i.) was 2.8 ± 0.4 % IA/g. For the same molecule, the “Spleen, accumulated activity” value ([2]; 4 h p.i.) was 1.7 ± 0.2 % IA/g, the “Stomach, accumulated activity” value ([2]; 4 h p.i.) was 1.3 ± 0.1 % IA/g and the Tumor-to-blood ratio ([2]; 4 h p.i.) was 1.1 ± 0.1. For the same molecule, the Tumor-to-kidney ratio ([2]; 4 h p.i.) was 1.4 ± 0.2, the Tumor-to-liver ratio ([2]; 4 h p.i.) was 6.5 ± 0.2 and the “Blood, accumulated activity” value ([2]; 24 h p.i.) was 8.7 ± 1.1 % IA/g. The “Bone, accumulated activity” value ([2]; 24 h p.i.) was 1.2 ± 0.2 % IA/g, the “Intestines, accumulated activity” value ([2]; 24 h p.i.) was 1.0 ± 0.1 % IA/g and the “KB tumor, accumulated activity” value ([2]; 24 h p.i.) was 41 ± 2 % IA/g. For the same molecule, the “Kidneys, accumulated activity” value ([2]; 24 h p.i.) was 30 ± 1 % IA/g, the “Liver, accumulated activity” value ([2]; 24 h p.i.) was 1.8 ± 0.4 % IA/g and the “Lung, accumulated activity” value ([2]; 24 h p.i.) was 4.8 ± 0.7 % IA/g. The “Muscle, accumulated activity” value ([2]; 24 h p.i.) was 1.0 ± 0.2 % IA/g, the “Salivary glands, accumulated activity” value ([2]; 24 h p.i.) was 2.3 ± 0.4 % IA/g and the “Spleen, accumulated activity” value ([2]; 24 h p.i.) was 2.3 ± 0.1 % IA/g. The “Stomach, accumulated activity” value ([2]; 24 h p.i.) was 1.1 ± 0.1 % IA/g, the Tumor-to-blood ratio ([2]; 24 h p.i.) was 4.7 ± 0.3 and the Tumor-to-kidney ratio ([2]; 24 h p.i.) was 1.3 ± 0.1. It also gave a Tumor-to-liver ratio ([2]; 24 h p.i.) of 24 ± 4.

For `CN1c2c(nc(N)[nH]c2=O)NCC1CNc1ccc(C(=O)NC(CCC(=O)NC(CCCCNC(=O)CN2CCN(CC(=O)[O-])CCN(CC(=O)[O-])CCN(CC(=O)[O-])CC2)C(=O)NC(CCCCNC(=O)c2ccc(CNC(=O)CCCCc3ccc(I)cc3)cc2)C(=O)O)C(=O)O)cc1.[177Lu+3]` (stereo not drawn) [[^177Lu]Lu-6S-RedFol-25], the “logD Values” [1] was −3.0 ± 0.1, the “Blood, accumulated activity” value ([2]; 1 h p.i.) was 13 ± 2 % IA/g and the “Bone, accumulated activity” value ([2]; 1 h p.i.) was 1.4 ± 0.2 % IA/g. The “Intestines, accumulated activity” value ([2]; 1 h p.i.) was 1.3 ± 0.3 % IA/g, the “KB tumor, accumulated activity” value ([2]; 1 h p.i.) was 17 ± 2 % IA/g and the “Kidneys, accumulated activity” value ([2]; 1 h p.i.) was 38 ± 5 % IA/g. For the same molecule, the “Liver, accumulated activity” value ([2]; 1 h p.i.) was 2.3 ± 0.1 % IA/g, the “Lung, accumulated activity” value ([2]; 1 h p.i.) was 5.5 ± 0.8 % IA/g and the “Muscle, accumulated activity” value ([2]; 1 h p.i.) was 1.2 ± 0.2 % IA/g. For the same molecule, the “Salivary glands, accumulated activity” value ([2]; 1 h p.i.) was 2.2 ± 1.5 % IA/g, the “Spleen, accumulated activity” value ([2]; 1 h p.i.) was 1.4 ± 0.2 % IA/g and the “Stomach, accumulated activity” value ([2]; 1 h p.i.) was 1.3 ± 0.2 % IA/g. For the same molecule, the Tumor-to-blood ratio ([2]; 1 h p.i.) was 1.3 ± 0.1, the Tumor-to-kidney ratio ([2]; 1 h p.i.) was 0.45 ± 0.02 and the Tumor-to-liver ratio ([2]; 1 h p.i.) was 7.4 ± 0.6. The “Blood, accumulated activity” value ([2]; 4 h p.i.) was 8.4 ± 2.8 % IA/g, the “Bone, accumulated activity” value ([2]; 4 h p.i.) was 1.1 ± 0.4 % IA/g and the “Intestines, accumulated activity” value ([2]; 4 h p.i.) was 1.2 ± 0.4 % IA/g. For the same molecule, the “KB tumor, accumulated activity” value ([2]; 4 h p.i.) was 32 ± 8 % IA/g, the “Kidneys, accumulated activity” value ([2]; 4 h p.i.) was 88 ± 23 % IA/g and the “Liver, accumulated activity” value ([2]; 4 h p.i.) was 1.9 ± 0.5 % IA/g. For the same molecule, the “Lung, accumulated activity” value ([2]; 4 h p.i.) was 4.1 ± 1.4 % IA/g, the “Muscle, accumulated activity” value ([2]; 4 h p.i.) was 0.92 ± 0.27 % IA/g and the “Salivary glands, accumulated activity” value ([2]; 4 h p.i.) was 1.9 ± 1.1 % IA/g. The “Spleen, accumulated activity” value ([2]; 4 h p.i.) was 1.3 ± 0.3 % IA/g, the “Stomach, accumulated activity” value ([2]; 4 h p.i.) was 1.0 ± 0.4 % IA/g and the Tumor-to-blood ratio ([2]; 4 h p.i.) was 4.0 ± 1.2. For the same molecule, the Tumor-to-kidney ratio ([2]; 4 h p.i.) was 0.37 ± 0.05, the Tumor-to-liver ratio ([2]; 4 h p.i.) was 18 ± 5 and the “Blood, accumulated activity” value ([2]; 24 h p.i.) was 0.15 ± 0.09 % IA/g. For the same molecule, the “Bone, accumulated activity” value ([2]; 24 h p.i.) was 0.14 ± 0.05 % IA/g, the “Intestines, accumulated activity” value ([2]; 24 h p.i.) was 0.10 ± 0.03 % IA/g and the “KB tumor, accumulated activity” value ([2]; 24 h p.i.) was 37 ± 4 % IA/g. For the same molecule, the “Kidneys, accumulated activity” value ([2]; 24 h p.i.) was 121 ± 13 % IA/g, the “Liver, accumulated activity” value ([2]; 24 h p.i.) was 0.56 ± 0.07 % IA/g and the “Lung, accumulated activity” value ([2]; 24 h p.i.) was 0.27 ± 0.06 % IA/g. The “Muscle, accumulated activity” value ([2]; 24 h p.i.) was 0.10 ± 0.02 % IA/g, the “Salivary glands, accumulated activity” value ([2]; 24 h p.i.) was 0.49 ± 0.04 % IA/g and the “Spleen, accumulated activity” value ([2]; 24 h p.i.) was 0.42 ± 0.05 % IA/g. For the same molecule, the “Stomach, accumulated activity” value ([2]; 24 h p.i.) was 0.13 ± 0.04 % IA/g, the Tumor-to-blood ratio ([2]; 24 h p.i.) was 316 ± 150 and the Tumor-to-kidney ratio ([2]; 24 h p.i.) was 0.31 ± 0.02. The Tumor-to-liver ratio ([2]; 24 h p.i.) was 67 ± 16.
